From US11718650B2, “Immunogenic peptides and their use in immune disorders” (IMCYSE SA, priority 2006, dated 2023)
No end group written: not given here.

Tests used:
[1] = tested on: BALB/c mice; test: T cell clones from BALB/c mice immunised with Der p 1 derived peptide; format: in vivo, mouse; settings: 20 μg subcutaneous, 3 injections
Description: Two groups of BALB/c mice were immunised by the subcutaneous route with either 20 μg of peptide with a T cell epitope sequence of the allergen Der p1 (SNYCQIYPPNANKIR [SEQ ID. NO: 5]) or a modified version thereof CGFS SNYCQIYPPNANKIR [SEQ ID. NO: 7] having at the N-terminus the sequence CGFS [SEQ ID. NO: 6].
After 3 injections, mice were sacrificed and CD4+ T cells were purified from the spleen and cloned by limiting dilution. T cell clones obtained from mice immunised with the SNYCQIYPPNANKIR [SEQ ID. […] Mice immunised with the peptide CGFS SNYCQIYPPNANKIR [SEQ ID.

[2] = tested on: WEHI cells; test: apoptosis of peptide-loaded WEHI cells by cytolytic T cell clones, with inhibitors; format: cell-based, mouse; settings: two CFSE-labelled populations, G121 Treg, 18 hours
Description: For inhibition of GZ-B activity, Z-AAD-CMK (Calbiochem) or 3,4-dichloroiso-coumarin (DCIC) (SIGMA) were added at indicated concentrations during all the co-culture period.
Experiments were carried out with p21-35-loaded CD11c dendritic (FIG. 13b: left panel) or WEHI cells (FIG. 13b: right panel). Upon incubation with R3TB7 virtually all dendritic cells (DC) or Wehi cells were induced into apoptosis as measured by caspase 3 activation.
Apoptosis can be induced by either the Fas-FasL pathway or by secretion of cytotoxic granules containing granzymes. Attempts were made to inhibit each of these pathways. Addition of increasing concentrations of an antibody towards FasL, or of granzyme B inhibitors, to a cell culture containing p21-35 loaded WEHI cells and a cytolytic T cell clone, increased the number of surviving WEHI cells in a dose-dependent manner (FIG. 13c). In a number of experiments it was shown that the anti-FasL antibody restored up to 80% of WEHI cell survival.
To further ascertain that APC lysis required direct contact with cytolytic T cells through MHC class II presentation of p21-35, an experiment was carried out in which two identical populations of Wehi cells were loaded with either p21-35 or with an irrelevant peptide (p71-85). These two populations could be distinguished by differential CFSE labelling. It can be seen from FIG. 13e that, while WEHI cells presenting p21-35 were fully lysed, only 40% of p71-85-loaded cells were affected.

[3] = tested on: p21-35-loaded Wehi cells; test: derivatisation of T cell clones after immunisation, screening for apoptosis of p21-35-loaded Wehi cells; format: in vivo, mouse
Description: Derivatisation of regulatory T cell clones. BALB/c mice were immunised by 3 footpad injections of 20 μg/ml peptide mp21-35Asn in alum at 2 weeks intervals. Ten days after the last injection, spleen CD4+ T cells were stimulated with T cell depleted splenocytes from naïve mice in the presence of peptide mp21-35Asn. After 10 days, cells were restimulated in the same conditions but with 10 U/ml mouse II-2 (Roche). After the fifth restimulation, T cells were subcloned in the presence of 10 U/ml IL-2 by limiting dilution. The subsequent specific stimulations were carried out in the presence of 20 U/ml mouse IL-2. The G121 T cell line was derived as previously described (Janssens et al. (2003) J. Immunol. 171, 4604-4612.
T cell clones were derived for phenotypic analysis from the spleen of mice injected with either mp21-35Asn in alum, mp21-35Asn in CFA/IFA (complete or incomplete Freund adjuvant), Der p 2 or saline as a control. A total of 17 clones were obtained, which expansion was fully dependent of addition of IL-2. These clones were maintained at rest for 10 days before assessing expression of CD25. Positive clones were then screened for their capacity to induce apoptosis of p21-35-loaded Wehi cells using annexin V binding as readout.

[4] = tested on: Treg clone specific for p21-35; test: oxidative metabolism (ROS, carboxy-H2DCFDA) of cognate Treg cells; format: cell-based, mouse; settings: 20 μg/ml, 90 minutes
Description: A Treg clone (10^5 cells) specific for p21-35 was incubated for 90 minutes with PBS (FIG. 5, panel A), peptide p21-35 (20 μg/ml in 200 μl PBS; FIG. 5, panel B) or tert-butyl hydroperoxide (100 μM in PBS; FIG. 5, panel C), which is an inducer of Reactive Oxygen Species (ROS). Cells were then labelled for 30 minutes with carboxy-H2DCFDA (12 μM), a fluorogenic marker for ROS in live cells, and then analysed by flow cytometry.

[5] = tested on: CD4+ effector T cells; test: activation of CD4+ effector T cells from patients sensitised to Der p 2; format: cell-based, human
From the text: Chemokines involved in attracting T lymphocytes to the lung are not precisely identified. The cytolytic Tregs described here express CD103 but not CCR7, which should confer them with the capacity to migrate to inflamed tissues. Other chemokines such as CCR5 and CCR3 were not detected. […] In an experimental model of asthma, including peripheral sensitisation and allergen inhalation, it was shown that Tregs have the capacity to prevent and suppress both inflammatory infiltration and airway hyperreactivity, which are the hallmarks of bronchial asthma. An LPS-free recombinant form of a main allergen, Der p 2, was used, which is involved in a large proportion of patients suffering from allergic asthma.

[6] = tested on: WEHI cells; test: T cell clones from mice immunised with gp75-targeted Der p 1 peptides, lysis of WEHI cells; format: in vivo, mouse; settings: 20 μg SC on aluminium hydroxide, three injections
Description: Groups of BALB/c mice were immunised subcutaneously (20 μg) with the experimental peptide [SEQ ID. NO: 10] or the control peptide [SEQ ID, NO: 11] adsorbed onto aluminium hydroxide. Three injections were performed at 2-week intervals. Ten days after the last immunisation, mice were sacrificed and CD4+ T cells prepared from the spleen using magnetic beads, CD4+ T cells (2×10^6 cells) were then stimulated in vitro by the Der p 1 T cell epitope (20 μg) presented by adherent spleen cells serving as antigen-presenting cells.
Ten days after stimulation the number of specific T cell lines obtained in each group was calculated by limiting dilution analysis. Each cell line was evaluated for its capacity to lyse WEHI cells, a B cell line selected for its efficacy in antigen-presentation by MHC class-II determinants, as described in Example 6. Only cells obtained from animals immunised with the peptide containing the glutaredoxin consensus sequence had acquired the capacity to lyse WEHI cells, and lysis occurs only in the presence of the cognate Der p 1 T cell epitope.

[7] = tested on: BALB/c mice; test: beta-lactoglobulin allergy mouse model; format: in vivo
Description: BALB/c mice are immunised by 2 SC injections with 20 μg of the peptide of sequence CHGC AQKKIIAEK [SEQ ID. NO: 30] in alum. This is followed 15 days later by intraperitoneal sensitisation to BLG (5 μg in alum), on 2 occasions at a fortnight interval. Alternatively, peptide administration is given 15 days after IP sensitisation to BLG.
Hypersensitivity to BLG is verified in the mouse by assessing bronchial hyperreactivity after intranasal administration of BLG. All mice are submitted to intranasal administration of 10 μg of BLG in saline 10 days after the last injections. A control group is included in which intraperitoneal sensitisation is carried out without peptide immunisation.

[8] = tested on: BALB/c mice; test: adoptive transfer of cytolytic T cell clones in asthma elicited by nasal instillation of Der p 1; format: in vivo, mouse
Description: BALB/c mice were submitted to 2 series of 3 daily nasal instillations separated by 1 week, using 100 μg of the Der p 1 allergen. The day after the last nasal instillation, mice are sacrificed and checked for the presence of alterations characteristic of allergic asthma in the bronchoalveolar space and lung.
Two additional groups of mice are adoptively transferred with cytolytic T cell clones obtained as described in Example 11 using the Der p 1 peptide with the motif, either prior to or after the first series of nasal instillations.
BALF differential cell counts were carried out 4 days after the last series of nasal instillations (6 BALB/c per group). Cells were obtained by bronchoalveolar lavage of lungs and identified on cytospins as macrophages, neutrophils, eosinophils or lymphocytes. Mice received 2 series of 3 nasal instillations with either 100 μg Der p 1 (model) or NaCl (negative).
Broncho-alveolar lavage fluids were tested for the presence of cytokines (Table 6).

[9] = tested on: regulatory T cell clones with cytolytic activity; test: activation of cytolytic regulatory T cell clones by peptide-loaded APC; format: cell-based; settings: versus C-x-x-S counterpart
Description: Antigen-presenting cells were loaded with p21-35 in its native configuration [SEQ ID. NO: 2] or p21-35 in which serine in position 24 is substituted by cysteine […] [SEQ ID. NO: 29]. This substitution creates a redox moiety of the type C-x-x-C.
Several regulatory T cell clones with cytolytic activity were incubated with APC. […] The granzymes are two of the key players in induction of apoptosis of target cells.

[10] = tested on: G221N; test: peptide processing assay with effector T cell clone G221N; format: cell-based, mouse; settings: NaN3/deoxyglucose, colchicine, chloroquine
[11] = prior to or after sensitisation

## SNYCQIYPPNANKIR (dominant T cell epitope of Der p 1 allergen) [SEQ ID. NO: 5, reference compound]
[1]
  type of T cell clones obtained from immunised mice: produced effector CD4+ T cells

## p71-85: alternative major T cell epitope (p71-85) located on Der p 2 (NACHYMKCPLVKGQQ; UniProt P49278 88-102, looked up, fragment) [reference compound]
[2]
  lysis of WEHI cells loaded with the peptide: 40%
[3]; mouse, in vivo
  induction of cytolytic Tregs towards the epitope: not possible to induce cytolytic Tregs

## QYIKANSKFIGITELGGCHGSEPCNIHRGKPF (not fully specified (residues 18, 24); cysteine pairing not given here) [mp21-35Asn]
[3]; immunised in CFA/IFA
  cytolytic clones among CD4+CD25+ T cell clones: 0/5
[3]; immunised in alum
  cytolytic clones among CD4+CD25+ T cell clones: 8/8

## CHGSEPCIIHRGKPF (the p21-35 peptide of Der p 2 allergen) [amino acids 21 to 35 of Der p 2]
[4]
  fluorescence intensity due to ROS increase: doubling
[2]
  lysis of WEHI cells loaded with the peptide: fully lysed
[5]
  activation of patients' CD4+ effector T cells: activated CD4+ effector T cells from patients sensitised to Der p 2

## CGFS SNYCQIYPPNANKIR SGGSGGSGG IITIAVVAALLLVAAIFGVASCLIRSRSTKNEANQPLLTDS [SEQ ID. NO: 10]
[6]
  T cell clones with Treg (cytotoxic) properties derived from immunised mice: All T cell clones obtained after treatment with the construct and re-stimulated in vitro were cytotoxic

## CHGC AQKKIIAEK (CHGCAQKKIIAEK; thioredox motif sequence CHGC linked to T cell epitope of Bovine beta-lactoglobulin (BLG)) [SEQ ID. NO: 30]
[7]; 20 μg in alum, 2 SC injections prior to or after sensitisation
  capacity to react to BLG nasal instillation: completely lost the capacity to react to BLG nasal instillation
[7]; [11]
  eosinophils in bronchoalveolar lavage fluid: lack of eosinophils
  hyperreactivity upon challenge with methacholine: absence of hyperreactivity

## CGFSSNYCQIYPPNANKIR (glutaredoxin-like consensus sequence and dominant T cell epitope of the Der p 1 allergen) [SEQ ID. NO: 7]
[1]
  type of T cell clones obtained from immunised mice: produced T cell clones with cytolytic properties
[8]; Prevention
  BAL IFN-gamma: 0 pg/mL
  BAL IL-2: 0.7 pg/mL
  BAL IL-4: 0 pg/mL
  BAL IL-5: 0.3 pg/mL
  BAL IL-10: 10 pg/mL
  BAL IL-13: 0.2 pg/mL
  BAL TGF-beta: 5.8 pg/mL
  BAL TNF-alpha: 0.7 pg/mL
[8]; Suppression
  BAL IFN-gamma: 0 pg/mL
  BAL IL-2: 0.8 pg/mL
  BAL IL-4: 0.7 pg/mL
  BAL IL-5: 0.5 pg/mL
  BAL IL-10: 2 pg/mL
  BAL IL-13: 0.3 pg/mL
  BAL TGF-beta: 0 pg/mL
  BAL TNF-alpha: 0 pg/mL

## SNYCQIYPPNANKIR SGGSGGSGG IITIAVVAALLLVAAIFGVASCLIRSRSTKNEANQPLLTDS [SEQ ID. NO: 11, reference compound]
[6]
  T cell clones with Treg (cytotoxic) properties derived from immunised mice: not from mice that received the control peptide

## CHGCEPCIIHRGKPF (p21-35 peptide of Der p2 allergen mutated at residue 24) [SEQ ID. NO: 29]
[9]
  T cell activation assessed by cytokine production: higher degree of T cell activation
  transcription of mRNA for FasL and granzymes: more than its C-x-x-S counterparts

B1: Der p 2: Recombinant full-length Der p 2 produced in Pichia pastoris (protein, UniProt P49278 1-146, looked up)
chain: MMYKILCLSLLVAAVARDQVDVKDCANHEIKKVLVPGCHGSEPCIIHRGKPFQLEAVFEANQNTKTAKIEIKASIDGLEVDVPGIDPNACHYMKCPLVKGQQYDIKYTWNVPKIAPKSENVVVTVKVMGDDGVLACAIATHAKIRD
modifications: full-length recombinant, Pichia pastoris
notes: Recombinant full-length Der p 2 produced in Pichia pastoris
[10]
  requirement for internalisation, fusion with and acidification of late endosomes: required internalisation into antigen-presenting cells
[3]; mice immunised with Der p 2
  cytolytic clones among CD4+CD25+ T cell clones: 0/4
